{"source": "patent US7070960B2", "about": "“Method of increasing product expression through solute stress” (Chiron Corporation, priority 1987, dated 2006)", "key": {"hybridoma D-234": {"test_system": "hybridoma D-234", "experiment": "Effect of NH4Cl on D-234 growth and IgM production", "format": "cell-based, human/human/murine trioma", "settings": "10 mM NH4Cl", "method": "The hybridoma D-234 was grown in HL-1 serum-free medium supplemented with 0.1% Pluronic polyol F-68, 10 mM glutamine and 10 mM NH4Cl. A control was also run without NH4Cl. One hundred ml cultures in 250 ml shake flasks were inoculated at an initial density of 1×10^5 viable cells/ml (91% viability)."}, "D-234": {"test_system": "D-234", "experiment": "Effect of Na lactate on D-234 growth and IgM production", "format": "cell-based, human/human/murine trioma", "method": "Approximately 1×10^5 cells/ml of D-234 were grown in 250 ml shake flasks (agitated at 100 rpm) in HL-1 medium containing 0.1% Pluronic polyol F-68 and 8 mM glutamine. A 1 M stock solution of sodium lactate (pH 7.4) in HL-1 was added to the medium. A preliminary screen of the effect of a broad range of sodium lactate concentrations (0–100 mM) on D-234 growth and IgM production was run. […] Cell densities at day four were reduced at all levels of lactate tested with a critical drop between 40 and 60 mM."}, "454A12 hybridomas": {"test_system": "454A12 hybridomas", "experiment": "Effect of sodium chloride on IgG production by hybridoma 454A12", "format": "cell-based, murine", "method": "In another experiment, the 454A12 hybridomas were grown in shake flasks with commercially available HL-1 medium (Ventrex) supplemented with 8 mM glutamine. Osmolality of the standard (control) HL-1 medium was 300 mOsmol/kg. In the test sample, the osmolality was increased to 400 mOsmol/kg using sodium chloride. The result of solute stress in the test sample was evidenced by a 50% decrease in maximum cell density. In the stressed condition, the specific IgG production rate per cell increased throughout the culture period The increase in specific productivity was greatest during the post exponential phase period of the culture when specific productivity was more than 60% higher under the stressed condition (FIG. 3)."}}}
{"molecule": "Cl.N", "note": "[NH4Cl, ammonium chloride]", "values": [{"measurement": "increase in the production of IgM", "setting": "hybridoma D-234", "result": 2, "unit": "fold"}, {"measurement": "maximum total cell density", "setting": "hybridoma D-234; control 2.3×10^6/ml", "result": "1.1e+06", "unit": "mL⁻¹"}]}
{"molecule": "CC(O)C(=O)[O-].[Na+]", "note": "(stereo not shown) [Na Lactate, sodium lactate]", "values": [{"measurement": "Total Cell Density", "setting": "D-234; 20 mM initial lactate, Day 2, 0 mM 4.7", "result": "5.6 1 × 10^5/ml"}, {"measurement": "% Viability", "setting": "D-234; 20 mM initial lactate, Day 2, 0 mM 95", "result": 96, "unit": "%"}, {"measurement": "IgM", "setting": "D-234; 20 mM initial lactate, Day 4, 0 mM 10", "result": 20, "unit": "µg/mL"}, {"measurement": "Total Cell Density", "setting": "D-234; 20 mM initial lactate, Day 4, 0 mM 21.0", "result": "15.0 1 × 10^5/ml"}, {"measurement": "% Viability", "setting": "D-234; 20 mM initial lactate, Day 4, 0 mM 90", "result": 92, "unit": "%"}, {"measurement": "IgM", "setting": "D-234; 20 mM initial lactate, Day 7, 0 mM 24", "result": 35, "unit": "µg/mL"}, {"measurement": "% Viability", "setting": "D-234; 40 mM initial lactate, Day 2", "result": 92, "unit": "%"}, {"measurement": "Total Cell Density", "setting": "D-234; 40 mM initial lactate, Day 2", "result": "5.1 1 × 10^5/ml"}, {"measurement": "% Viability", "setting": "D-234; 40 mM initial lactate, Day 4", "result": 89, "unit": "%"}, {"measurement": "IgM", "setting": "D-234; 40 mM initial lactate, Day 4", "result": 22, "unit": "µg/mL"}, {"measurement": "Total Cell Density", "setting": "D-234; 40 mM initial lactate, Day 4", "result": "12.9 1 × 10^5/ml"}, {"measurement": "IgM", "setting": "D-234; 40 mM initial lactate, Day 7", "result": 54, "unit": "µg/mL"}, {"measurement": "% Viability", "setting": "D-234; 60 mM initial lactate, Day 2", "result": 93, "unit": "%"}, {"measurement": "Total Cell Density", "setting": "D-234; 60 mM initial lactate, Day 2", "result": "2.2 1 × 10^5/ml"}, {"measurement": "% Viability", "setting": "D-234; 60 mM initial lactate, Day 4", "result": 87, "unit": "%"}, {"measurement": "IgM", "setting": "D-234; 60 mM initial lactate, Day 4", "result": 19, "unit": "µg/mL"}, {"measurement": "Total Cell Density", "setting": "D-234; 60 mM initial lactate, Day 4", "result": "4.1 1 × 10^5/ml"}, {"measurement": "IgM", "setting": "D-234; 60 mM initial lactate, Day 7, control 24", "result": 61, "unit": "µg/mL"}, {"measurement": "cell density as % of the control", "setting": "D-234; 80 mM added lactate", "result": 12, "unit": "%"}, {"measurement": "% Viability", "setting": "D-234; 80 mM initial lactate, Day 2", "result": 81, "unit": "%"}, {"measurement": "Total Cell Density", "setting": "D-234; 80 mM initial lactate, Day 2", "result": "2.1 1 × 10^5/ml"}, {"measurement": "% Viability", "setting": "D-234; 80 mM initial lactate, Day 4", "result": 65, "unit": "%"}, {"measurement": "IgM", "setting": "D-234; 80 mM initial lactate, Day 4", "result": 15, "unit": "µg/mL"}, {"measurement": "Total Cell Density", "setting": "D-234; 80 mM initial lactate, Day 4", "result": "2.6 1 × 10^5/ml"}, {"measurement": "IgM", "setting": "D-234; 80 mM initial lactate, Day 7", "result": 28, "unit": "µg/mL"}, {"measurement": "% Viability", "setting": "D-234; 100 mM initial lactate, Day 2", "result": 72, "unit": "%"}, {"measurement": "Total Cell Density", "setting": "D-234; 100 mM initial lactate, Day 2", "result": "2.2 1 × 10^5/ml"}, {"measurement": "% Viability", "setting": "D-234; 100 mM initial lactate, Day 4", "result": 50, "unit": "%"}, {"measurement": "IgM", "setting": "D-234; 100 mM initial lactate, Day 4", "result": 11, "unit": "µg/mL"}, {"measurement": "Total Cell Density", "setting": "D-234; 100 mM initial lactate, Day 4", "result": "2.0 1 × 10^5/ml"}, {"measurement": "IgM", "setting": "D-234; 100 mM initial lactate, Day 7", "result": 14, "unit": "µg/mL"}, {"measurement": "increase in specific (per cell) productivity", "setting": "D-234; at 60 mM added lactate", "result": "up to 14 fold"}, {"measurement": "effect on growth", "setting": "D-234; levels of added lactate above 40 mM, screen 0–100 mM", "result": "greatly inhibited"}]}
{"molecule": "[Cl-].[Na+]", "note": "[sodium chloride]", "values": [{"measurement": "decrease in maximum cell density", "setting": "454A12 hybridomas; 400 mOsmol/kg using sodium chloride versus 300 mOsmol/kg control", "result": 50, "unit": "%"}, {"measurement": "increase in specific IgG productivity", "setting": "454A12 hybridomas; 400 mOsmol/kg using sodium chloride, post exponential phase period", "result": "more than 60%"}]}
